# What was measured:
# [1] = test system: brain phospholipid levels; test: Brain phospholipid levels in gerbils given UMP diet and/or PUFA by gavage; assay type: in vivo, gerbil
# Description: Cells were homogenized in 100 volumes of ice-cold deionized water using a tissue degrader (Polytron PT 10-35, Kinematica AG, Switzerland); 1 ml of aliquots were then mixed with 3 ml of chloroform+methanol mixture (2:1 v/v) and vortexed vigorously for 30 seconds. After cooling for 1 h on ice, the mixture was mixed sequentially with 3 ml of chloroform+methanol mixture (2:1 v/v) and 1 ml of ice-cold deionized water. The mixture was vortexed vigorously and allowed to stand overnight in the cold room (18 h). The organic (lower) and aqueous (upper) phases of the mixtures were separated by centrifugation (10 min at 4° C.; 1000 g). An aliquot (2 ml) of the upper phase was used for determination of CDP-Choline (see below), and 0.1-0.4 ml aliquots of the lower phase were dried under vacuum for phospholipid analysis. Residues of 0.1 ml aliquots of the lower phase were assayed for total phospholipid content by measuring phosphorus. Residues of 0.4 ml aliquots of the lower phase were reconstituted in 40 μl methanol and subjected to thin-layer chromatography using silica G plates (Adsorbosil Plus-1®, Alltech), and a system consisting of chloroform/ethanol/triethylamine/water (30:34:30:8) as the mobile phase. Phospholipid standards were used to identify the corresponding bands under UV light after the plates were sprayed with 0.1% diphenylhexatriene in petroleum ether. Bands for individual phospholipid classes (PC, PE, SM, PS and PI) were scraped off the plates and extracted into 1 ml of methanol; dried under vacuum; and assayed for phosphorus content. Total phosphorus was determined by comparison with standard curves by using KH2PO4 run with each assay. To each sample was added 0.5 ml of 4.5% HclO4/27% H2SO4 and tubes were heated at 180° C. for 3 h. After cooling to room temperature, 5 ml of the color reagent (a 10:1 dilution of solutions containing 2.5 mg/ml ammonium molybdate, 8.2 mg/ml sodium acetate and 100 mg/ml ascorbic acid respectively) was added and the tubes were incubated for 2 h, 37° C. Absorbance was measured spectrophotometrically at 820 nm. Phospholipid mass was determined by multiplying the phosphorus content by 25.
# Control standard diet (Table 4) consisted of Teklad Global 16% protein rodent diet (Harlan Teklad, Madison, Wis.), which contained 0.1% choline chloride (CC), corresponding to a daily dose of 50 mg/kg/day. UMP was provided as 0.5% UMP·2Na^+ weight/weight, added to the control diet, also prepared by Harlan Teklad, corresponding to 240 mg/kg/day UMP. DHA was administered as 300 mg/kg/day in 200 microliter (mcL)/day 5% Arabic Gum solution, while groups not receiving DHA were administered vehicle (5% Arabic Gum) alone. DHA was provided by Nu-Chek Prep (Elysian, Minn.) and UMP by Numico (Wagenigen, NL).
# Gerbils were anesthetized with ketamine and xylazine (80 and 10 mg/kg bwt, i.p.) and sacrificed by immersing the head into liquid nitrogen for 2 min, followed by decapitation. Brains were immediately and quickly (30 seconds) removed using a bone rongeur and stored at −80° C.
# Frozen brain hemispheres were weighed and homogenized in 100 volumes of ice-cold deionized water using a tissue degrader (Polytron PT 10-35, Kinematica AG, Switzerland), then analyzed as described in Example 1.
# Protein in whole brain homogenate sample was measured for using bicinchoninic acid reagent (Perkin Elmer, Norwalk, Conn., USA). DNA was measured by measuring 460 nm emission of samples on a fluorometer in the presence of bisbenzimidizole, a fluorescent dye known as Hoechst H 33258 (American Hoechst Corporation), which has an excitation maximum at 356 nm and an emission maximum of 458 when bound to DNA.
# Male gerbils weighing 80-100 g were divided into 4 groups of 8 gerbils and administered the supplements depicted in Table 1: […]
# [2] = test system: Rat hippocampal cells; test: 14C-choline incorporation into PC in cultured hippocampal neurons; assay type: cell-based; settings: DHA+choline pre-treatment; 14C-choline 2 h; FIG. 10
# Description: Rat hippocampal cells were cultured for 3 weeks in Neutrobasal plus B27 medium, to reach full maturation. On the day of the experiment, cells were incubated with DMEM+choline, with or without added DHA. ^14C-choline was added, cells were incubated for an additional 2 h, and newly-formed ^14C-labeled PC was extracted and measured as described in Example 1.
# To determine the effect of DHA on phospholipids in neurons in short-term culture, neurons were pre-treated with DHA+choline. […] These findings confirm that DHA increases phospholipid levels in brain and neural cells.
# [3] = test system: brain CDP-choline levels; test: Brain CDP-choline and CDP-ethanolamine levels in gerbils; assay type: in vivo, gerbil; settings: 28 days
# From the text: FIGS. 5A and 5B. FIG. 5A illustrates the effect Effects of DHA on brain CDP-choline levels (FIG. 5A) and while FIG. 5B illustrates the effect of DHA on brain CDP-ethanolamine levels (FIG. 5B). Groups of 8 gerbils received either a control or a UMP-containing diet, and, by gavage, DHA (in a vehicle of 5% gum Arabic solution) or 5% gum Arabic solution alone for 28 days. On the 29th day brains were harvested and assayed for CDP-choline. Data are presented as means±SEM. Statistical analysis was performed using one- or two-way ANOVA followed by Tukey test. a: P<0.05 when compared with the values for control diet plus vehicle group; b: P<0.05 when compared with values for UMP diet plus vehicle group.
# Aliquots (2 ml) of the upper (aqueous) phase were dried under a vacuum, reconstituted, and injected into an HPLC. The dried samples were reconstituted in 100-200 μl water and were analyzed by HPLC on an anion exchange column (Alltech Hypersil APS-2, […], 250×4.6 mm). CDP-choline was eluted with a linear gradient of buffers A (H3PO4, 1.75 mM, pH 2.9) and B (NaH2PO2, 500 mM, pH 4.5) from 0 to 100% B over period of 30 min. With this system, CDP-choline was resolved from closely co-eluting substances such as UMP in an isocratic system over a period of 40 min. The retention time for CDP-choline was 9.5 min. The column was washed with buffer B at the end of each experiment and every several days to remove retained nucleotides. Individual nucleotide peaks were detected by UV absorption at 280 nm and were identified by comparison with the positions of authentic standards, as well as by the addition of nucleotide standards to samples.
# To determine the effect of PUFA administration on CDP-choline levels, brain CDP-choline levels were measured in the animals from the previous Example. Administration of DHA and/or UMP decreased CDP-choline levels (FIG. 5A) and CDP-ethanolamine levels (FIG. 5B). DHA reduced CDP-choline levels by 26% (compared with those receiving just the control diet and DHA's vehicle), and in UMP-treated gerbils by 21% (compared with those receiving UMP-containing diet and DHA's vehicle) (both P<0.05).
structure (smiles),measurement,setting,value
"CCC=CCC=CCC=CCC=CCC=CCC=CCCC(=O)O [DHA, 4,7,10,13,16,19-docosahexaenoic acid]",Brain phospholipid levels,"[1]; 3 weeks, Table 6",increased
same,Increase in levels of total phospholipids over control group,"[1]; 4 weeks, gerbil brain",12%
same,Total PtdCho,[1]; Table 5 part A,185 ± 12 nmol/mg prt
same,Total PtdEtn,[1]; Table 5 part A,78 ± 5 nmol/mg prt
same,Total PtdSer,[1]; Table 5 part A,39 ± 3 nmol/mg prt
same,Total Ptdins,[1]; Table 5 part A,32 ± 2 nmol/mg prt
same,Increase in synthesis of phospholipids relative to cells administered choline alone,[2],more than 2 fold
same,CDP-choline levels (FIG. 5A),[3],decreased
same,CDP-ethanolamine levels (FIG. 5B),[3],decreased

# — US10736912B2, “Compositions containing PUFA and/or uridine and methods of use thereof” (MASSACHUSETTS INSTITUE OF TECHNOLOGY, priority 2005, dated 2020)
